Source: patent US5817828A, “Pyrazole derivatives” (Nissan Chemical Industries, Ltd., priority 1993, dated 1998)

Legend:
angiotensin II (AngII) = test: Test for Antagonistic Effect against Angiotensin (inhibition of AngII contraction of rabbit thoracic aorta ring); format: cell-based; conditions: Oryctolagus cuniculus, AngII 10^-8 M, corrected using DMSO, read-out: Percentage of Inhibition of Contraction; for inhibition at 0.1 µM: 1 × 10^-7 M compound; for inhibition at 0.01 µM: 1 × 10^-8 M compound
Description: Test for Antagonistic Effect against Angiotensin:
A rabbit was sacrificed while anesthetized with pentobarbital, and immediately its thoracic aorta was removed. This was cut into a ring specimen, kept at 37° C. and hung in a nutrient liquid (Krebs-Henseleit solution) aerated with a mixed gas comprising 95% oxygen and 5% carbon dioxide, whereupon its isometric contraction was measured. The specimen was equilibrated for one hour, with replacement of the nutrient liquid every 20 minutes, and thereafter angiotensin II (AngII: 10^-8 M) was applied thereto to cause its contraction. To evaluate the effect of the compounds of the present invention, the compound to be tested (10^-7 M or 10^-8 M) was applied as pre-treatment to the specimen in 20 minutes before the fourth application of AngII thereto, the percentage of inhibiting the contraction caused by AngII was obtained on the basis of the third contraction caused by AngII of being 100%. The percentage was corrected, using dimethylsulfoxide (DMSO).

[1] = system: Angiotensin II (AT2) Receptor; test: Test for Inhibition of Binding to Angiotensin II (AT2) Receptor; conditions: 10^-6 M compound; 0.1 nM ^125 I-AngII; bovine brain specimen; 37° C., 30 minutes
Description: Test for Inhibition of Binding to Angiotensin II (AT2) Receptor:
The effect of the compounds of the present invention for inhibiting the binding activity of Angiotensin II (AngII) to the bovine brain receptor were tested, according to the method by J. P. Bennett, Jr. et al. [J. Biol. Chem., 251, 7423-7430 (1976)].
10^-6 M of the compound of the present invention to be tested was added to an aqueous solution containing a predetermined amount of a bovine brain specimen and 0.1 nM of ^125 I-AngII and incubated at 37° C. for 30 minutes. The resulting solution was separated through a glass fiber filter to terminate the reaction. The radioactivity bonded to the filter was quantified by a γ-counter.

[2] = system: spontaneous hypertensive male rat; test: Test for Hypotensive Effect (oral, spontaneous hypertensive rat); format: in vivo; conditions: 30 mg/kg, spontaneous hypertensive male rat (10-week age)
Description: Test for Hypotensive Effect
The compounds of the present invention to be tested were dissolved in a physiological saline solution and was orally administered to a spontaneous hypertensive male rat (10-week age). The blood pressure of the rat was measured, via a pressure transducer through the catheter that had previously been introduced into its aorta from its femoral artery. The variation in the blood pressure was observed from before the application of the compound to 20 hours after the application thereof.

Structure (SMILES) | inhibition at 0.1 µM (angiotensin II (AngII)) [%] | inhibition at 0.01 µM (angiotensin II (AngII)) [%] | Percentage of Inhibition [1] [%] | Time after the administration at which the largest percentage of blood pressure depression was obtained [2] [h] | Largest Percentage of Blood Pressure Depression ([2]; observed to 20 hours) [%]
CCCN(Cc1ccc(-c2ccccc2-c2nnn[nH]2)cc1)c1nn(CCc2ccccc2)c(Br)c1C(=O)O [compound 4] | 85 | 40 | 55.1 | 10 | 29.6
CCCN(Cc1ccc(-c2ccccc2-c2nnn[nH]2)cc1)c1nn(CCc2ccccc2)c(Cl)c1C(=O)O [compound 56] | 84 | 51 | – | – | –
CCCN(Cc1ccc(-c2ccccc2-c2nnn[nH]2)cc1)c1nn(CCc2ccccc2)c(-c2ccccc2)c1C(=O)O [compound 61] | 77 | 34 | – | – | –
CCCN(Cc1ccc(-c2ccccc2-c2nnn[nH]2)cc1)c1nn(CCc2ccccc2)c(-c2ccc(OC)cc2)c1C(=O)O [compound 64] | 92 | 29 | – | – | –
CCCN(Cc1ccc(-c2ccccc2-c2nnn[nH]2)cc1)c1nn(CCc2ccccc2)c(-c2cccc(Br)n2)c1C(=O)O [compound 67] | 35 | 13 | – | – | –
CCCN(Cc1ccc(-c2ccccc2-c2nnn[nH]2)cc1)c1nn(CCc2ccccc2)c(-c2cccs2)c1C(=O)O [compound 68] | 35 | 18 | – | – | –
CCCN(Cc1ccc(-c2ccccc2-c2nnn[nH]2)cc1)c1nn(CCc2ccccc2)c(C(=O)c2ccccc2)c1C(=O)O [compound 71] | 36 | 14 | – | – | –
CCCNc1c(C(=O)O)c(N(CCC)Cc2ccc(-c3ccccc3-c3nnn[nH]3)cc2)nn1CCc1ccccc1 [compound 72] | 15 | 7 | – | – | –
